Data as given in article PMC3917258, “6-Bromoisatin Found in Muricid Mollusc Extracts Inhibits Colon Cancer Cell Proliferation and Induces Apoptosis, Preventing Early Stage Tumor Formation in a Colorectal Cancer Rodent Model” (Marine Drugs, 2013).

Tests used:
distal colon crypts = assay: AARGC mouse model: crypt height; type: in vivo, mice (C57BL/6J); details: 0.025-0.1 mg/g daily oral gavage 14 days, 6 h post AOM
Procedure: (§1) This experiment was conducted under Flinders animal welfare approval number 751-10. A total of 38 wild-type (C57BL/6J) male mice aged 10 weeks were obtained from the Animal Resource Centre, Perth, Western Australia. Mice were divided randomly into 4 groups (ten mice in each treatment group and 8 mice in the sunflower oil only control group) and housed in 8 cages (four to five mice per cage). The mice were given water and food (rodent chow) ad libitum and maintained at the temperature of 22 ± 2 °C and humidity of 80% ± 10% with a 12 h light/dark cycle. Mice were weighed every five days and on the day of kill, and monitored daily for signs of illness, such as weight and hair loss, diarrhea, constipation, rectal bleeding, labored breathing, lethargy, eye and nose discharge.
To detect the early stage prevention of colon cancer, an established AARGC rodent model with injection of the carcinogen AOM was used. Synthetic 6-bromoisatin at 3 different dosages (0.025, 0.05 and 0.1 mg/g body weight) was administered to mice by daily oral gavage in 100 µL sunflower oil, containing 0.02% Vitamin E, for two weeks. […]
Distal colon segments were embedded in paraffin and sectioned at 4 µm (3–4 sections per mouse), then stained with hematoxylin, to evaluate apoptosis in epithelial cells of distal colon sections. […] The mean crypt column height was also determined.

[1] = Plasma liver enzymes AST, ALT, ALP (hepatotoxicity); type: in vivo, mice (C57BL/6J); details: 0.025-0.1 mg/g daily gavage two weeks, versus oil control
Procedure: (§2) To detect the early stage prevention of colon cancer, an established AARGC rodent model with injection of the carcinogen AOM was used. Synthetic 6-bromoisatin at 3 different dosages (0.025, 0.05 and 0.1 mg/g body weight) was administered to mice by daily oral gavage in 100 µL sunflower oil, containing 0.02% Vitamin E, for two weeks. The control group was gavaged with sunflower oil (containing 0.02% Vitamin E) only. After two weeks, all mice were injected with a single intraperitoneal (i.p.) injection of AOM at a dosage of 10 mg/kg bodyweight and euthanized 6 h later by cervical dislocation under anesthesia. […] The distal colon of each mouse was excised and fixed in 10% buffered formalin for 24 h and then embedded in paraffin for histological and immunohistological examination.
Blood samples (0.5–1 mL) were obtained from the mice under anesthesia by cardiac puncture at time of kill and transferred to Gribbles Veterinary Pathology laboratory, Adelaide within heparinized vacutainer tubes then centrifuged to separate into the cell layer for hematology analysis (Abbott Cell Dyn 3700 analyzer, North Ryde, NSW, Australia) and plasma for biochemistry analysis (Siemens Advia 1800 chemistry analyzer, Erlangen, Germany). The plasma levels of the liver enzymes AST, ALT and ALP were assessed as indicators of hepatotoxicity.

HT29 cells = assay: Light microscopy of cell morphology (apoptosis); type: cell-based, human; details: 12 h
Procedure: (§3) The cells were harvested from flasks by trypsinization (1× Trypsin-EDTA) and were seeded (20,000 cells/well) into clear 96-well plates (Costar®, Mt Martha, VIC, Australia) for measurement of cell viability and white (opaque) 96-well plates (Interpath, Heidelberg West, VIC, Australia) for determination of apoptosis and necrosis. HT29 cells were incubated for 48 h, then the media was removed and the cells were washed with PBS. To treat the cells, synthetic 6-bromoisatin was dissolved in 100% dimethylsulphoxide (DMSO) then diluted in media and added to the cells at a range of concentrations from 0.1 to 0.01 mg/mL, in triplicate (final DMSO concentration of 1%). 1% DMSO controls were also included on each plate. Staurosporine (5 µM) for apoptosis and lysis solution (5 μL/well, Promega, Alexandria, NSW, Australia) for necrosis were added to the white plates in triplicate, as positive controls. All cells were treated for 12 h. Morphological changes in the cells were observed on an Olympus CK2 inverted optical microscope (×400 magnification) 12 h after treatment. To measure cell viability, the MTT assay was applied, which measures the reduction of MTT tetrazolium salt to formazan, as previously described. To measure necrosis and apoptosis, CytoTox-ONE Homogeneous Membrane Integrity Assay reagent (Promega) and Caspase-Glo 3/7® assay (Promega) were applied respectively, according to our previous study. These assays were all repeated in triplicate on three separate occasions (n = 3).

[2] = test system: epithelial cells of distal colon; assay: AARGC mouse model: apoptotic index; type: in vivo, mice (C57BL/6J)
Procedure: as §1, §2
Distal colon segments were embedded in paraffin and sectioned at 4 µm (3–4 sections per mouse), then stained with hematoxylin, to evaluate apoptosis in epithelial cells of distal colon sections. The slides were examined under a light microscope (Olympus BH-2, Mt Waverly, VIC, Australia, 400× magnification) to identify the apoptotic cells, by characteristic morphological changes such as cell shrinkage, condensed chromatin and sharply delineated cell borders surrounded by an unstained halo [26, 49]. Twenty randomly chosen crypts were used to calculate the percent of apoptotic cells per crypt. The mean crypt column height was also determined.

[3] = test system: caspase 3/7 activity in HT29 cells; assay: Caspase-Glo 3/7 assay; type: cell-based, human; details: 12 h
Procedure: as §3, with “All media and chemicals were purchased from Sigma Aldrich (Castle Hill, NSW, Australia) unless otherwise stated. HT29 human colorectal cancer cell line (passage no. 36-42) were cultured (37 °C and 5% CO2) in Dulbecco’s Modified Eagle’s Medium (DMEM) supplemented with 4500 mg/L L-glutamine, 10% FBS, 100 U/mL Penicillin/Streptomycin and 1% Non-essential Amino Acid (100×), until the cells reached 70% confluence. The cells” for “The cells”

O=C1Nc2cc(Br)ccc2C1=O [6-bromoisatin, 6-Bromoindole-2,3-dione]
colon crypt height (distal colon crypts): no significant effect | plasma level of AST, ALT and ALP [1]: No significant difference | cell morphology (HT29 cells; 112 μM): morphological alterations, such as chromatin condensation, characteristic of the apoptotic process | cell morphology (HT29 cells; 223 μM): morphological alterations, such as chromatin condensation, characteristic of the apoptotic process | cell morphology (HT29 cells; 446 μM, in lower numbers than the two other doses): Apoptotic cells were also observed | increase in apoptotic index over the oil control ([2]; 0.05 mg/g daily oral gavage two weeks, distal colon, 6 h post AOM 10 mg/kg): 2.3 fold | apoptotic index lower than the dose of 0.05 mg/g ([2]; 0.1 mg/g daily oral gavage two weeks, distal colon): 40% | apoptotic index ([2]; 0.1 mg/g daily oral gavage two weeks, distal colon, compared with control): significantly induced apoptosis | apoptotic index ([2]; lowest concentration (0.025 mg/g) daily oral gavage two weeks, compared to AOM injected control): not a significant difference | caspase 3/7 activity ([3]; 446 μM = 0.1 mg/mL, compared to DMSO control): minor but significant reduction | caspase 3/7 activity ([3]; concentrations <0.1 mg/mL): did not increase caspase 3/7 activity
